Source: ChEMBL document CHEMBL1201862, “PubChem BioAssay data set” (2004)
Activity calls are given as the source filed them.

Columns and labels:
[1] = molecular target: T1, Endoribonuclease toxin MazF (Escherichia coli K-12, UniProt P0AE70); experiment: activation of MazEF endoribonuclease cleavage – biochemical, fluorescence, single-stranded RNA substrate, uHTS hits, dose response (AID 588481); assay type: functional
T1 sequence (P0AE70 whole entry): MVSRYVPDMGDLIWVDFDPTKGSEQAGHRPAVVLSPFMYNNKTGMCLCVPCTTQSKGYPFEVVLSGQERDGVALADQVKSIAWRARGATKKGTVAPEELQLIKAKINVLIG

[2] = molecular target: T1, Endoribonuclease toxin MazF; experiment: substrate-only fluorescence increase artefacts – biochemical, single-stranded RNase substrate, counter-screen for MazEF activator project, dose response (AID 588502); assay type: functional
[3] = molecular target: T2, Replicative DNA helicase DnaB (Mycobacterium tuberculosis, UniProt P9WMR3); experiment: DnaB intein splicing inhibitors, dose response, biochemical, cell-free fluorescence (AID 449749); assay type: functional
T2 sequence (P9WMR3 whole entry): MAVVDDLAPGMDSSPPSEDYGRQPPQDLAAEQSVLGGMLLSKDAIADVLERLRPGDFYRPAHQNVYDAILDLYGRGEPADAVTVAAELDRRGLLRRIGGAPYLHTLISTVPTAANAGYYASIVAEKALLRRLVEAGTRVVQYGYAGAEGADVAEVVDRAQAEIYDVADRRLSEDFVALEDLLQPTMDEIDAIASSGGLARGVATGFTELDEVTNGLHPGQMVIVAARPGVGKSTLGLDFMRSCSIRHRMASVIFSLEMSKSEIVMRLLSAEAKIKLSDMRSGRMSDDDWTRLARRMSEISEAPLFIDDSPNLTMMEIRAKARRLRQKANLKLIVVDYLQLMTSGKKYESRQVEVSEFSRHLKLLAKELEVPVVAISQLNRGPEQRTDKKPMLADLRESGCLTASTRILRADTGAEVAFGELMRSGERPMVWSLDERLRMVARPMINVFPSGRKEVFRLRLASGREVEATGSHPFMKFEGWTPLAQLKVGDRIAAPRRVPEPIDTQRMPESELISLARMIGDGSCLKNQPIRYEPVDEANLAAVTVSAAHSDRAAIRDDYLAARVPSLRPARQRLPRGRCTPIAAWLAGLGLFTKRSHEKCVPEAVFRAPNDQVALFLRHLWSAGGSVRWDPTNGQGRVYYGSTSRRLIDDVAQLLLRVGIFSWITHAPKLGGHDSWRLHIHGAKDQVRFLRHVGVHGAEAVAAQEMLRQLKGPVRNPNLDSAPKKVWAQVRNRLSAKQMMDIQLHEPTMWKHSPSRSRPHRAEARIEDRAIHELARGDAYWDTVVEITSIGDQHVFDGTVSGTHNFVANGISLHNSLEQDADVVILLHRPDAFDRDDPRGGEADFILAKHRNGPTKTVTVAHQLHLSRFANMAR

Protein RecA = molecular target: T3, Protein RecA (Mycobacterium tuberculosis, UniProt P9WHJ3); experiment: Fluorescence Cell-Free Homogeneous Dose Retest to Identify Inhibitors of RecA-Intein Splicing Activity. [Related pubchem assays (depositor defined):AID2097, AID2223, AID489010, AID492950]; assay type: functional
T3 sequence (P9WHJ3 whole entry): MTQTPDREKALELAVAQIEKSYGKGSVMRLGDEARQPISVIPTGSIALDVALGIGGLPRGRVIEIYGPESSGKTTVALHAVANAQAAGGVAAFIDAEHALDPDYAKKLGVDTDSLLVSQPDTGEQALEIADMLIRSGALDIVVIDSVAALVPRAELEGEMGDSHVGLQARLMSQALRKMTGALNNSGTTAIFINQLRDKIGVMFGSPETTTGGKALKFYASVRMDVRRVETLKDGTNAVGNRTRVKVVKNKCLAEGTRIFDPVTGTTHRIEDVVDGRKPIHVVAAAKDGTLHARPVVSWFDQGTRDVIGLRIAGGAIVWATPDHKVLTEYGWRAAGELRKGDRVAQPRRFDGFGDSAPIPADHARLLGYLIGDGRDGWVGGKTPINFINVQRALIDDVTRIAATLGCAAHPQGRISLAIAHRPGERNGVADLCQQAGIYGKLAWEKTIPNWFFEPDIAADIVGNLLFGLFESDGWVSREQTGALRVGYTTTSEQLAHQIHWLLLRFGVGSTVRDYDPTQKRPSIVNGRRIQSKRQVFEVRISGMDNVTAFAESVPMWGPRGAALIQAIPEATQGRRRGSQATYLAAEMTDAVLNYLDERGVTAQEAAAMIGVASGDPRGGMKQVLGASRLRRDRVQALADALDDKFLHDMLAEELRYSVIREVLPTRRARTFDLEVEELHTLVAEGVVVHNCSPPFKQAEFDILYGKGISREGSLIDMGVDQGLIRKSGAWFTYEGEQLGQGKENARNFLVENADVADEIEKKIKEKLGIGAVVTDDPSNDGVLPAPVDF

[4] = A549 cell cytotoxicity, dose response, cytotoxicity control, plate reader, cherry-pick, antagonist series (AID 743412); assay type: functional, cell-based
[5] = toxicity toward HepG2 liver cells – cell-based, plate reader, cherry-pick, antagonist series, cytotoxicity control, dose response (AID 743416); assay type: functional
[6] = blockers of bursicon-stimulated LGR2 cAMP reporter – cell-based, HEK293, CRE-luciferase reporter, cherry pick, set 2, dose response (AID 743343); assay type: functional;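 also: transfected cells were stimulated with diluted bursicon conditioned medium after compound addition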
[7] = blockade of melanocortin 4 receptor signaling – cell-based, plate reader, cherry pick, counter-screen for LGR2 antagonist project, dose response (AID 743444); assay type: functional;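 also: transfected HEK 293 cells stimulated with alpha-MSH peptide; potency of inhibitors of the alpha-MSH evoked signal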
[8] = viability loss in HEK293 cells – cell-based, plate reader, cherry-picked samples, cytotoxicity control, dose response (AID 743446); assay type: functional
[9] = viability inhibitors of stage V gametocytes – luminescence, dose response (AID 1117278); assay type: functional, cell-based;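 also: gametocytes exposed to compound for 24 hours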
[10] = viability loss in human Jurkat cells – cell-based, luminescence, cytotoxicity control for P. falciparum gametocyte viability project, dose response (AID 1117277); assay type: functional;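 also: potency reflects loss of cellular ATP meaning fewer viable cells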
Vero = experiment: cells; assay type: functional, cell-based; details: Chlorocebus sabaeus
[11] = molecular target: T4, High affinity choline transporter 1 (Homo sapiens, UniProt Q9GZV3); experiment: human choline transporter blockers, potency – cell-based, 5-point CRC, membrane potential dye, dose response (AID 504840); assay type: functional
T4 sequence (Q9GZV3 whole entry): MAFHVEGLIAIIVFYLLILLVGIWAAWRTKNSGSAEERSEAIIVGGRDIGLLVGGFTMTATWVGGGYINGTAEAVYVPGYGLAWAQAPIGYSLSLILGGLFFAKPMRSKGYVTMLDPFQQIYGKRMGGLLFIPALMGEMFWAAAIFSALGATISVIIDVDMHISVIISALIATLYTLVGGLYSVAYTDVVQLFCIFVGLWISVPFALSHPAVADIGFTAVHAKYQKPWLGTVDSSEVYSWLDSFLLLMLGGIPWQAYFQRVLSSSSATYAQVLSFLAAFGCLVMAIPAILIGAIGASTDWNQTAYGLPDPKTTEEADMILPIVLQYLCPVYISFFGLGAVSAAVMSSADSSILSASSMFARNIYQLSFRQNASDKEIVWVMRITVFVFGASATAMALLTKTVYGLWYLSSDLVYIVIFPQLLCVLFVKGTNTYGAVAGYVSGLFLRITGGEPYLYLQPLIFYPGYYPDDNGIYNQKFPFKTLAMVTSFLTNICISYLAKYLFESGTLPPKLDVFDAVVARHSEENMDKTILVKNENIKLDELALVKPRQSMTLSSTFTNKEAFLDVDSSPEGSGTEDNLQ

Coagulation factor XII = molecular target: T5, Coagulation factor XII (Homo sapiens, UniProt P00748); assay type: functional;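 also: activated factor XIIa alpha cleaving a fluorogenic AMC peptide substrate; inhibitor potency from loss of enzyme activity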
T5 sequence (P00748 whole entry): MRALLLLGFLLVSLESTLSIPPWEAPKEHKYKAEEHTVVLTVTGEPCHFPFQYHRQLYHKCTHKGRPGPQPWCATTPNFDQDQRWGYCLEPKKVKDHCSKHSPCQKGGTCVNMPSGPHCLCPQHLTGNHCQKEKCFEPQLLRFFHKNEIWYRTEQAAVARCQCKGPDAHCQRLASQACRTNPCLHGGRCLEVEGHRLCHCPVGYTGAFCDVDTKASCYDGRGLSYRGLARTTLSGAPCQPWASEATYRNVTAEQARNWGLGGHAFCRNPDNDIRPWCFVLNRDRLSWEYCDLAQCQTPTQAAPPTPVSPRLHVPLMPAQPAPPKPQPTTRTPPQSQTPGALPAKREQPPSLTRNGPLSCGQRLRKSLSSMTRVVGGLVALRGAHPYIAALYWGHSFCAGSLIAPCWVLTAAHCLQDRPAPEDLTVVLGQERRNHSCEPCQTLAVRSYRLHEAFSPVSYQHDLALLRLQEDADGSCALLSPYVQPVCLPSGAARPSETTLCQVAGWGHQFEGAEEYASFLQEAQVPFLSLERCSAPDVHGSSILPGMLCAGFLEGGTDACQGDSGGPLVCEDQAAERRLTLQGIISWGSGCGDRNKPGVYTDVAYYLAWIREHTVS

Paired box protein Pax-8 = Paired box protein Pax-8 (Homo sapiens, UniProt Q06710); experiment: PAX8 transcriptional activity inhibition in RMG-I – RMG-I cells, luciferase, cherry-pick, dose response (AID 687027); assay type: functional, cell-based;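 also: luciferase reporter driven by Pax8 target thyroperoxidase promoter measured by SteadyGlo luminescence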
Sequence of Paired box protein Pax-8 (Q06710 whole entry): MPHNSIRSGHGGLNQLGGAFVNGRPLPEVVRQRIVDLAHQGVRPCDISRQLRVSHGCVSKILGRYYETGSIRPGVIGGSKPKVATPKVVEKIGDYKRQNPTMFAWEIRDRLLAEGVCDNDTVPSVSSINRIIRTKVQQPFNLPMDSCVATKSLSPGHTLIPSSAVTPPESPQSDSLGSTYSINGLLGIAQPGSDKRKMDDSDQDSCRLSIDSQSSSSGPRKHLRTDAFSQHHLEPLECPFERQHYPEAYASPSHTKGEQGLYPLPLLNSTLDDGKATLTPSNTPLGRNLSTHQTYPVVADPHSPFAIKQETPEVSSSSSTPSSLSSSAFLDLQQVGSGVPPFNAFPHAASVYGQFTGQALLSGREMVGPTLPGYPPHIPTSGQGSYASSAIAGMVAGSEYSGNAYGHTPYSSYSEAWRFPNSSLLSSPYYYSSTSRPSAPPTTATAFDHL

[12] = molecular target: T6, Mannose-6-phosphate isomerase (Homo sapiens, UniProt P34949); experiment: MPI inhibition at elevated mannose 6-phosphate – biochemical, fluorescence intensity, high mannose 6-phosphate, primary screen (AID 1220)
T6 sequence (P34949 whole entry): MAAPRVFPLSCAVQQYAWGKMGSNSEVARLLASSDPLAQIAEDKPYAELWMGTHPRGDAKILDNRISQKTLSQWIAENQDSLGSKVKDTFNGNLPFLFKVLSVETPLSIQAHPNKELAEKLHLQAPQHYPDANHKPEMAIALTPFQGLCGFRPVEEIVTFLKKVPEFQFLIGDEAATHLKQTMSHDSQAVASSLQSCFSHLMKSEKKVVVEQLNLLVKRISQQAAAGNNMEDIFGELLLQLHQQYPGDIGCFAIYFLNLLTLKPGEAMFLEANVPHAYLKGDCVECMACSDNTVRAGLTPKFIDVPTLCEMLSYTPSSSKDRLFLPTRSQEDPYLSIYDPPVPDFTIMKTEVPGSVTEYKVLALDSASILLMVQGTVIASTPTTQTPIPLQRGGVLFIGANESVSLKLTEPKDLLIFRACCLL

[13] = molecular target: Glyceraldehyde-3-phosphate dehydrogenase (Homo sapiens, UniProt P04406)
Sequence of Glyceraldehyde-3-phosphate dehydrogenase (P04406 whole entry): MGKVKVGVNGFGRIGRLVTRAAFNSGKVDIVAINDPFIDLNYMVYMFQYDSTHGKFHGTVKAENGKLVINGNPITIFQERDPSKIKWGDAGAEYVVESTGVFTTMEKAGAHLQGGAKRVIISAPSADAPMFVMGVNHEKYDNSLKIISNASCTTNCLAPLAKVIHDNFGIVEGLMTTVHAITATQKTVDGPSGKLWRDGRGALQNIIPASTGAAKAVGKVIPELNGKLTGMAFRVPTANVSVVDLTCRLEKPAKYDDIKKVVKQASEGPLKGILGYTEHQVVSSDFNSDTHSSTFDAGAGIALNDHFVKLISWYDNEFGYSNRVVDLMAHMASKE

## CCOc1ccc2c(c1)c1nc3ccccc3nc1n2C
[1]
  EC50: > 99 µM (inactive)
[2]
  EC50: > 99 µM (inactive)

## CN(C(=O)c1ccc(S(=O)(=O)c2cccc(Cl)c2)c([N+](=O)[O-])c1)C1CCCCC1
[3]
  AC50: 5.56 µM (active)
Protein RecA
  EC50: 4.33 µM (active)
[4]
  AC50: 15.8 µM (active)
[5]
  AC50: 16.2 µM (active)
[6]
  AC50: 5.15 µM (active)
[7]
  AC50: 7.45 µM (active)
[8]
  AC50: 13.8 µM (active)

## Cc1nn(CCCC(=O)O)c(C)c1[N+](=O)[O-]
[9]
  IC50: > 109 µM (inactive)
[10]
  IC50: > 83.4 µM (inactive)

## COc1ccc(NC(=O)[C@H](Cc2c[nH]c3ccccc23)NC(=O)[C@@H]2Cc3ccccc3CN2)cc1
Vero
  IC50: 11.8 µM (active)

## Cc1ccc(C[S+]([O-])Cc2ccc(C(=O)NC3CCC(C)CC3)o2)cc1 (centres undefined)
[11]
  IC50: 13.8 µM (active)

## CCN(CC)CCCNC(=O)c1cc(-c2ccc(Cl)c(Cl)c2)on1
[11]
  IC50: 12.9 µM (active)

## NS(=O)(=O)c1ccc(Cl)cc1[N+](=O)[O-]
Coagulation factor XII
  IC50: > 50 µM (inactive)

## Oc1ccccc1-c1nc(NCc2ccccc2)c2ccccc2n1
[1]
  EC50: > 99 µM (inactive)
[2]
  EC50: > 99 µM (inactive)

## Cc1ccc(-n2c(C)nn(Cc3ccc([N+](=O)[O-])cc3)c2=O)cc1
[9]
  IC50: > 109 µM (inactive)
[10]
  IC50: > 83.4 µM (inactive)

## O=C(Nc1ccc(Cl)c(C(F)(F)F)c1)N1CCCC(O)C1 (centres undefined)
Coagulation factor XII
  IC50: > 50 µM (inactive)

## Cn1nnnc1Sc1ncnc2scc(-c3cccc(C(F)(F)F)c3)c12
Paired box protein Pax-8
  AC50: 3.41 µM (active)
[4]
  AC50: 10.1 µM (active)
[5]
  AC50: 16.4 µM (active)
[6]
  AC50: 6.18 µM (active)
[7]
  AC50: 5.97 µM (active)
[8]
  AC50: 9.08 µM (active)

## CCC(=O)NC(C)C(c1cccs1)N1CCOCC1 (centres undefined)
[9]
  IC50: > 109 µM (inactive)
[10]
  IC50: > 83.3 µM (inactive)

## CC(=O)NS(=O)(=O)c1ccc(NC(=S)NC(=O)c2ccco2)cc1
Coagulation factor XII
  IC50: > 50 µM (inactive)

## CN(C)S(=O)(=O)c1cccc(NC(=O)COC(=O)COc2ccc(Br)cc2)c1
[9]
  IC50: > 109 µM (inactive)
[10]
  IC50: > 83.3 µM (inactive)

## O=C(Nc1ccc(S(=O)(=O)Nc2cnc3ccccc3n2)cc1)c1cc(F)c(F)cc1Cl
[11]
  IC50: 12.1 µM (active)

## COc1cc(C(N)=O)cc(Cl)c1OC
Coagulation factor XII
  IC50: > 50 µM (inactive)

## O=C(O)COc1ccc(NC(=O)c2cccs2)cc1
[9]
  IC50: > 109 µM (inactive)
[10]
  IC50: > 83.3 µM (inactive)

## CC/C(C)=N/NS(=O)(=O)c1ccc(C)c([N+](=O)[O-])c1
[1]
  EC50: > 99 µM (inactive)
[2]
  EC50: 7.91 µM (active)

## CC(/C=C/c1ccco1)=N\NC(=O)CNc1ccc2ccccc2c1
[12]
  IC50: > 50 µM (not active)

## CC(C)CCNC(=O)c1cc(-c2ccc(Cl)cc2Cl)n[nH]1
[13]
  IC50: > 10 µM (inconclusive)
